The source of these data is the kinase profiling compilation of Christmann-Franck et al. (2016).

In general, residual activity refers to the signal under treatment as a percentage of the control signal.

Sequence of MYLK (human) (Q15746 whole entry, looked up): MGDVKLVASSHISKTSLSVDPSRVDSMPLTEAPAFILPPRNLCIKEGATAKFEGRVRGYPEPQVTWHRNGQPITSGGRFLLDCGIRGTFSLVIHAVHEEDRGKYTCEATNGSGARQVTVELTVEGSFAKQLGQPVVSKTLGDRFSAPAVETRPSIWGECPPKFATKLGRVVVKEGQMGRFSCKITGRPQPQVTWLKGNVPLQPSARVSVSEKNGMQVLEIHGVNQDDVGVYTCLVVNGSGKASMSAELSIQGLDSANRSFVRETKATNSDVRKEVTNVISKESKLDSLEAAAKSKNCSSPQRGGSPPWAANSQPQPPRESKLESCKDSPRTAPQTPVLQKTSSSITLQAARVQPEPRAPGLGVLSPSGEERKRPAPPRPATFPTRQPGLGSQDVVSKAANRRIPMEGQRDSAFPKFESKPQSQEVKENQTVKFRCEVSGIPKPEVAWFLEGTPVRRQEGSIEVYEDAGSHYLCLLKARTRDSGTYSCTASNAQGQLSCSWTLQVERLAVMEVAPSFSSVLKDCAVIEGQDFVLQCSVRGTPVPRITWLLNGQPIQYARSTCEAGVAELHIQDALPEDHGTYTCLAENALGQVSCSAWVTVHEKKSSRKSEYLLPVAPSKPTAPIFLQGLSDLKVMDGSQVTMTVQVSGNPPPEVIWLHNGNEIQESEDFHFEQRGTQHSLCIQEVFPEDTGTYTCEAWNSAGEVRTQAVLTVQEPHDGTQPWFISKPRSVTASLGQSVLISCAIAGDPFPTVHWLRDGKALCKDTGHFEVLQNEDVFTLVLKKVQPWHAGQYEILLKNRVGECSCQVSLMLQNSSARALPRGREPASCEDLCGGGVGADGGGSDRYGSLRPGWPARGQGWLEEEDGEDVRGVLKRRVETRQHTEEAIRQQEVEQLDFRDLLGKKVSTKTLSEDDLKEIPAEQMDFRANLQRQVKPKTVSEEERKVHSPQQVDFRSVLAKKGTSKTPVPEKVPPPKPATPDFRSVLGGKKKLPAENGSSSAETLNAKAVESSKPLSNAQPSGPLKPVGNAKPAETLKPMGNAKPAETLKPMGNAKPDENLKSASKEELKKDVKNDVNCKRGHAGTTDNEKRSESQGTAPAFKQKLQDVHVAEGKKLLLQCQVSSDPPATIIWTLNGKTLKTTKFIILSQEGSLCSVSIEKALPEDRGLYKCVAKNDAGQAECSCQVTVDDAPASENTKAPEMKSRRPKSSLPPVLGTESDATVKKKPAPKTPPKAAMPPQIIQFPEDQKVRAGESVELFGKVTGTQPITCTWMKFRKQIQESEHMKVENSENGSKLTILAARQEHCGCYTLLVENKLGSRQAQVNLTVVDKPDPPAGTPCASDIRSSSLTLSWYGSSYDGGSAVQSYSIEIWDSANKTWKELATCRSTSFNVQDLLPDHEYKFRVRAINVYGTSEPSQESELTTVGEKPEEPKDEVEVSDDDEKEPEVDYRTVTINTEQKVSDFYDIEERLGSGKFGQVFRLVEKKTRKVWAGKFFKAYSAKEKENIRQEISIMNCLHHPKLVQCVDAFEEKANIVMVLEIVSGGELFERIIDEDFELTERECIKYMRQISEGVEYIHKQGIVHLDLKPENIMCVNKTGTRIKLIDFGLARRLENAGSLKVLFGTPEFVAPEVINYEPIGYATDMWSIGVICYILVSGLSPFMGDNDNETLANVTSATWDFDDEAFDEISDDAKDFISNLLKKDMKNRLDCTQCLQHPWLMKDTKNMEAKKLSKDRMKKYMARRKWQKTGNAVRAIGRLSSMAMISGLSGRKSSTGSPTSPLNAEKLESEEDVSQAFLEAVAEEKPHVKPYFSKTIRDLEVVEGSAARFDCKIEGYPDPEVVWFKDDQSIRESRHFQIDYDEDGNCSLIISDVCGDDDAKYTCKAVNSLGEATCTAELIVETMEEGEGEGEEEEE
Sequence of ZAP70 (human) (P43403 whole entry, looked up): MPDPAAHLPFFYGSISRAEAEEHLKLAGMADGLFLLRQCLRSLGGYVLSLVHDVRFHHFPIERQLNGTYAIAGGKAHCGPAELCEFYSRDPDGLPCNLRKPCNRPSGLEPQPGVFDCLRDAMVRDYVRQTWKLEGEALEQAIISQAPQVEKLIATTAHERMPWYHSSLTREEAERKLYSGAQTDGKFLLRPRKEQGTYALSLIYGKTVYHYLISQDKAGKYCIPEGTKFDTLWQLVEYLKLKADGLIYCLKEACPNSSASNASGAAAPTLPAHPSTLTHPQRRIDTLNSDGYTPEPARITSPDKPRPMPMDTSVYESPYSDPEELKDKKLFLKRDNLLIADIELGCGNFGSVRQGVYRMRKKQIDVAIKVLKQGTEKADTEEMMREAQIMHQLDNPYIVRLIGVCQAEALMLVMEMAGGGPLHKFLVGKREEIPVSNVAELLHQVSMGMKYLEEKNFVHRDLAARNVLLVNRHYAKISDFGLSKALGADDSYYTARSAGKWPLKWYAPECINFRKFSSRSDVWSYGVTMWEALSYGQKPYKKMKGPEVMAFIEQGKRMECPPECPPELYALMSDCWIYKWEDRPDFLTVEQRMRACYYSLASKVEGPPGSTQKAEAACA
Sequence of NEK6 (human) (Q9HC98 whole entry, looked up): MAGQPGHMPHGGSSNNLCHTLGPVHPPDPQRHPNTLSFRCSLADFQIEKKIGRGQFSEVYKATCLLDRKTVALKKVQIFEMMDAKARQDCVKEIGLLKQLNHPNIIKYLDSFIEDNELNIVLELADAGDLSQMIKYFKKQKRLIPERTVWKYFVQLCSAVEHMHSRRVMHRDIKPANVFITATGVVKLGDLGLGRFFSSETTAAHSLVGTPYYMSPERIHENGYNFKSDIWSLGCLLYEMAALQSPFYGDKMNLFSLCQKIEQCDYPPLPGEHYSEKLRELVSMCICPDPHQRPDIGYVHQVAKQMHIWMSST

The first experiment has as its target MAP3K11 (human) (UniProt Q16584). Put plainly: radiometric filter-binding kinase assay, Kinase HotSpot. The conditions noted are these: compound 0.5 µM; ATP 10 µM.
`O=C1NC(=O)c2c1c1c3ccccc3n3c1c1c2c2ccccc2n1C1CCC3O1`: the residual activity was 1.37%.
The same measure, in the same setting: the value for `CCN(CC)C(=O)c1ccc(Nc2nc(OCC3CCCCC3)c3nc[nH]c3n2)cc1` was 5.55%.

The target of the next experiment is MAP3K14 (human) (UniProt Q99558). The experiment is described as above. The conditions noted are these: compound 0.5 µM; ATP 10 µM.
Consider `Cc1ccc(S(=O)(=O)/C=C/C#N)cc1`, for which the residual activity worked out at 103%.
Still for that read-out and setting: for `O=C1NC(=O)c2c1c1c3ccccc3n3c1c1c2c2ccccc2n1C1CCC3O1` the value was 134%; for `CCN(CC)C(=O)c1ccc(Nc2nc(OCC3CCCCC3)c3nc[nH]c3n2)cc1`, 132%.

A further experiment has as its target MAPK10 (human) (UniProt P53779). The description is as above. The conditions noted are these: compound 0.5 µM; ATP 10 µM.
For `Cc1ccc(S(=O)(=O)/C=C/C#N)cc1`, the residual activity stood at 107%.
The same measure, in the same setting: the value for `O=C1NC(=O)c2c1c1c3ccccc3n3c1c1c2c2ccccc2n1C1CCC3O1` was 138%; that for `CCN(CC)C(=O)c1ccc(Nc2nc(OCC3CCCCC3)c3nc[nH]c3n2)cc1` was 108%.

The next experiment has as its target MARK2 (human) (UniProt Q7KZI7). The description is as above. The settings on record: compound 0.5 µM; ATP 10 µM.
Turning to `Cc1ccc(S(=O)(=O)/C=C/C#N)cc1`, the residual activity is 84%.
Still for that read-out and setting: the value for `O=C1NC(=O)c2c1c1c3ccccc3n3c1c1c2c2ccccc2n1C1CCC3O1` was 4.88%.
On the same count and under the same terms, for `CCN(CC)C(=O)c1ccc(Nc2nc(OCC3CCCCC3)c3nc[nH]c3n2)cc1` the value was 75.3%.

A further experiment addresses MYLK (human) (UniProt Q15746). The description is as above. The settings on record: compound 0.5 µM; ATP 10 µM.
On to `Cc1ccc(S(=O)(=O)/C=C/C#N)cc1`, for which the residual activity amounted to 93.9%.
Take `O=C1NC(=O)c2c1c1c3ccccc3n3c1c1c2c2ccccc2n1C1CCC3O1`: the residual activity worked out at 4.01%.
Same read-out and setting: for `CCN(CC)C(=O)c1ccc(Nc2nc(OCC3CCCCC3)c3nc[nH]c3n2)cc1` the value was 91.6%.

Another experiment addresses NEK6 (human) (UniProt Q9HC98). The description is as above. The conditions noted are these: compound 0.5 µM; ATP 10 µM.
In the case of `Cc1ccc(S(=O)(=O)/C=C/C#N)cc1`, the residual activity came to 108%.
Still for that read-out and setting: for `O=C1NC(=O)c2c1c1c3ccccc3n3c1c1c2c2ccccc2n1C1CCC3O1` the value was 93.1%; for `CCN(CC)C(=O)c1ccc(Nc2nc(OCC3CCCCC3)c3nc[nH]c3n2)cc1`, 101%.

Another experiment deals with NUAK1 (human) (UniProt O60285). The experiment is described as above. The conditions noted are these: compound 0.5 µM; ATP 10 µM.
Sequence of NUAK1 (human) (O60285 whole entry, looked up): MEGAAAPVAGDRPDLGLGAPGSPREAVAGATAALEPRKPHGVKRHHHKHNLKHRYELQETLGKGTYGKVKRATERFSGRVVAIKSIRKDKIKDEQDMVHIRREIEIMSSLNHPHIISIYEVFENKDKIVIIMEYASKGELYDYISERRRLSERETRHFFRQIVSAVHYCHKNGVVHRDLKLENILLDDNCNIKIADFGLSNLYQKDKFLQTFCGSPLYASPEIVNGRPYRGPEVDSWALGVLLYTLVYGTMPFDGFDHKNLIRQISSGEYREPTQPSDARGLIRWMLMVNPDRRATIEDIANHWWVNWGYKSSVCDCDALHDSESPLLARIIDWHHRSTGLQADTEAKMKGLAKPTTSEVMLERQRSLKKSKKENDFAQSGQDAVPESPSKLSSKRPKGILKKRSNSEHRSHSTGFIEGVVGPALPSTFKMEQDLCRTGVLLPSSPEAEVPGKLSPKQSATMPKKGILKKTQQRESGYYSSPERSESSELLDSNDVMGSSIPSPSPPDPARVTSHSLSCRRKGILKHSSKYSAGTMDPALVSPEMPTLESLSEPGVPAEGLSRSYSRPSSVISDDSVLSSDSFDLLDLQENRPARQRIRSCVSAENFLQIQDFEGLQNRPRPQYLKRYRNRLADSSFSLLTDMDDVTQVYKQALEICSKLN
Regarding `Cc1ccc(S(=O)(=O)/C=C/C#N)cc1`, the residual activity was determined as 101%.
Turning to `O=C1NC(=O)c2c1c1c3ccccc3n3c1c1c2c2ccccc2n1C1CCC3O1`, the residual activity was 2.09%.
On the same count and under the same terms, for `CCN(CC)C(=O)c1ccc(Nc2nc(OCC3CCCCC3)c3nc[nH]c3n2)cc1` the value was 3.67%.

For another experiment, the target named is OXSR1 (human) (UniProt O95747). Described as above. The conditions noted are these: compound 0.5 µM; ATP 10 µM.
Consider `Cc1ccc(S(=O)(=O)/C=C/C#N)cc1`, for which the residual activity came to 103%.
On the same count and under the same terms, for `O=C1NC(=O)c2c1c1c3ccccc3n3c1c1c2c2ccccc2n1C1CCC3O1` the value was 92.4%; for `CCN(CC)C(=O)c1ccc(Nc2nc(OCC3CCCCC3)c3nc[nH]c3n2)cc1`, 99%.

The next experiment addresses PASK (human) (UniProt Q96RG2). The experiment is described as above. The settings on record: compound 0.5 µM; ATP 10 µM.
On to `Cc1ccc(S(=O)(=O)/C=C/C#N)cc1`, for which the residual activity was determined as 99.3%.
On the same count and under the same terms, for `O=C1NC(=O)c2c1c1c3ccccc3n3c1c1c2c2ccccc2n1C1CCC3O1` the value was 43.3%.
Same read-out and setting: for `CCN(CC)C(=O)c1ccc(Nc2nc(OCC3CCCCC3)c3nc[nH]c3n2)cc1` the value was 103%.

In the next experiment the target is PKN2 (human) (UniProt Q16513). The experiment is described as above. The conditions noted are these: compound 0.5 µM; ATP 10 µM.
Sequence of PKN2 (human) (Q16513 whole entry, looked up): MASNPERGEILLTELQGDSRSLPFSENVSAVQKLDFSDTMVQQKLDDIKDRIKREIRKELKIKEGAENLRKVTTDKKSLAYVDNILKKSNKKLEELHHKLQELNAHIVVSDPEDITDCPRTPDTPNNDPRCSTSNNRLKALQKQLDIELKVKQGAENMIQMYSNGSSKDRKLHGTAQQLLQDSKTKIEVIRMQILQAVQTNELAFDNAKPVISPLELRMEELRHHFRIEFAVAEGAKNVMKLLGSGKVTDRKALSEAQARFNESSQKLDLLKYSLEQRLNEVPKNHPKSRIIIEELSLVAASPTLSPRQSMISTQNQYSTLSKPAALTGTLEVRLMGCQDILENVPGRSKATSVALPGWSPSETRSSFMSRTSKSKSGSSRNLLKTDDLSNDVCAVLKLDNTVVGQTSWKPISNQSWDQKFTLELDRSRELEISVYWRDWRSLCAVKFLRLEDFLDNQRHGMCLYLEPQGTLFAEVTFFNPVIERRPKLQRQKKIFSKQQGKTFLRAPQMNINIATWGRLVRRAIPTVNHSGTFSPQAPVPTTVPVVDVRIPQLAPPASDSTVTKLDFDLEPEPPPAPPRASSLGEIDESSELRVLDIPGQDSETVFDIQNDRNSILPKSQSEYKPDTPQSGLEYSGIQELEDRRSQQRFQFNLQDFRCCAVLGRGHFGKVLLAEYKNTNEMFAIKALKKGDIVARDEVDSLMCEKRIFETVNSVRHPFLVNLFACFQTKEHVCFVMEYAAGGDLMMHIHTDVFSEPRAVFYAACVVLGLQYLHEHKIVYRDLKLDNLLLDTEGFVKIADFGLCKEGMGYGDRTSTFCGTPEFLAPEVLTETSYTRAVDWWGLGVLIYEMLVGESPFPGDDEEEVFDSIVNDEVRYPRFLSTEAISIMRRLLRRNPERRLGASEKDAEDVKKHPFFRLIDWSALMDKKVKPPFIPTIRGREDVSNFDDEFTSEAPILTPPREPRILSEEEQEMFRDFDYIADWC
As for `Cc1ccc(S(=O)(=O)/C=C/C#N)cc1`, the residual activity was determined as 81.5%.
On to `O=C1NC(=O)c2c1c1c3ccccc3n3c1c1c2c2ccccc2n1C1CCC3O1`, for which the residual activity amounted to 15.9%.
The same measure, in the same setting: the value for `CCN(CC)C(=O)c1ccc(Nc2nc(OCC3CCCCC3)c3nc[nH]c3n2)cc1` was 91.8%.

The target in a further experiment is PLK1 (human) (UniProt P53350). The description is as above. The conditions noted are these: compound 0.5 µM; ATP 10 µM.
In the case of `Cc1ccc(S(=O)(=O)/C=C/C#N)cc1`, the residual activity was 110%.
The same measure, in the same setting: the value for `O=C1NC(=O)c2c1c1c3ccccc3n3c1c1c2c2ccccc2n1C1CCC3O1` was 50.2%; that for `CCN(CC)C(=O)c1ccc(Nc2nc(OCC3CCCCC3)c3nc[nH]c3n2)cc1` was 91.4%.

Another experiment deals with PRKCB2 (human) (UniProt P05771). The description is as above. The settings on record: compound 0.5 µM; ATP 10 µM.
`Cc1ccc(S(=O)(=O)/C=C/C#N)cc1`: the residual activity was found to be 104%.
`O=C1NC(=O)c2c1c1c3ccccc3n3c1c1c2c2ccccc2n1C1CCC3O1`: the residual activity was determined as 6.42%.
The same measure, in the same setting: for `CCN(CC)C(=O)c1ccc(Nc2nc(OCC3CCCCC3)c3nc[nH]c3n2)cc1` the value was 95%.

For a further experiment, the target named is PRKCZ (human) (UniProt Q05513). The description is as above. The settings on record: compound 0.5 µM; ATP 10 µM.
Sequence of PRKCZ (human) (Q05513 whole entry, looked up): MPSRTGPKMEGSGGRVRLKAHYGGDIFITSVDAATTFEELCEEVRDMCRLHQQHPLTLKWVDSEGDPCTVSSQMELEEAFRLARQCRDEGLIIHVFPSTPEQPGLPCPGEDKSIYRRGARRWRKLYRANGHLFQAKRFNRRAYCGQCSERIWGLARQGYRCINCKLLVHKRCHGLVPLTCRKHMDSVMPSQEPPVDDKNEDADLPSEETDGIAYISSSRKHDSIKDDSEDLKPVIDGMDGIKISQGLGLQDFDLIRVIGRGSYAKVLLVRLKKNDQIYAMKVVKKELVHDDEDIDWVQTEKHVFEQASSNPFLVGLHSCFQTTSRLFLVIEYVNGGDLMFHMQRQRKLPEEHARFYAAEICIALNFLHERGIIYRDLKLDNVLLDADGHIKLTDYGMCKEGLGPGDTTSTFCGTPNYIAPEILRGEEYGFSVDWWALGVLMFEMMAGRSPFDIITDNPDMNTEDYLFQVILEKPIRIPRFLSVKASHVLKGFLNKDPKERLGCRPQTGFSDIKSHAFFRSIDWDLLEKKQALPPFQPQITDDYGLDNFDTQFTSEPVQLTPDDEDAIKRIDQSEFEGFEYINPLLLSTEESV
For the compound `Cc1ccc(S(=O)(=O)/C=C/C#N)cc1`, the residual activity was found to be 101%.
Still for that read-out and setting: for `O=C1NC(=O)c2c1c1c3ccccc3n3c1c1c2c2ccccc2n1C1CCC3O1` the value was 87.4%; for `CCN(CC)C(=O)c1ccc(Nc2nc(OCC3CCCCC3)c3nc[nH]c3n2)cc1`, 95.8%.

A further experiment addresses PTK2B (human) (UniProt Q14289). The description is as above. The settings on record: compound 0.5 µM; ATP 10 µM.
`Cc1ccc(S(=O)(=O)/C=C/C#N)cc1`: the residual activity worked out at 92.8%.
For the compound `O=C1NC(=O)c2c1c1c3ccccc3n3c1c1c2c2ccccc2n1C1CCC3O1`, the residual activity worked out at 41.5%.
On to `CCN(CC)C(=O)c1ccc(Nc2nc(OCC3CCCCC3)c3nc[nH]c3n2)cc1`, for which the residual activity was 48.7%.

The next experiment addresses ROCK2 (human) (UniProt O75116). Described as above. The settings on record: compound 0.5 µM; ATP 10 µM.
Consider `Cc1ccc(S(=O)(=O)/C=C/C#N)cc1`, for which the residual activity worked out at 99.1%.
The same measure, in the same setting: for `O=C1NC(=O)c2c1c1c3ccccc3n3c1c1c2c2ccccc2n1C1CCC3O1` the value was 73.7%.
As to `CCN(CC)C(=O)c1ccc(Nc2nc(OCC3CCCCC3)c3nc[nH]c3n2)cc1`, the residual activity came to 39.8%.

Another experiment concerns the target RPS6KA3 KD1 KD2 (human) (UniProt P51812). The description is as above. The conditions noted are these: compound 0.5 µM; ATP 10 µM.
On to `Cc1ccc(S(=O)(=O)/C=C/C#N)cc1`, for which the residual activity came out at 95.9%.
The same measure, in the same setting: for `O=C1NC(=O)c2c1c1c3ccccc3n3c1c1c2c2ccccc2n1C1CCC3O1` the value was 2.35%.
The same measure, in the same setting: the value for `CCN(CC)C(=O)c1ccc(Nc2nc(OCC3CCCCC3)c3nc[nH]c3n2)cc1` was 17.6%.

Another experiment addresses STK33 (human) (UniProt Q9BYT3). The experiment is described as above. The conditions noted are these: compound 0.5 µM; ATP 10 µM.
For the compound `Cc1ccc(S(=O)(=O)/C=C/C#N)cc1`, the residual activity amounted to 87.1%.
Same read-out and setting: for `O=C1NC(=O)c2c1c1c3ccccc3n3c1c1c2c2ccccc2n1C1CCC3O1` the value was 12.7%; for `CCN(CC)C(=O)c1ccc(Nc2nc(OCC3CCCCC3)c3nc[nH]c3n2)cc1`, 67.2%.

The target in the next experiment is TYK2 JH1 catalytic (human) (UniProt P29597). Described as above. The settings on record: compound 0.5 µM; ATP 10 µM.
As to `Cc1ccc(S(=O)(=O)/C=C/C#N)cc1`, the residual activity turned out to be 82.8%.
For the compound `O=C1NC(=O)c2c1c1c3ccccc3n3c1c1c2c2ccccc2n1C1CCC3O1`, the residual activity was 4.32%.
Same read-out and setting: for `CCN(CC)C(=O)c1ccc(Nc2nc(OCC3CCCCC3)c3nc[nH]c3n2)cc1` the value was 4.96%.

A further experiment concerns the target WNK2 (human) (UniProt Q9Y3S1). Described as above. The settings on record: compound 0.5 µM; ATP 10 µM.
`Cc1ccc(S(=O)(=O)/C=C/C#N)cc1`: the residual activity was determined as 124%.
Still for that read-out and setting: the value for `O=C1NC(=O)c2c1c1c3ccccc3n3c1c1c2c2ccccc2n1C1CCC3O1` was 93.6%.
As to `CCN(CC)C(=O)c1ccc(Nc2nc(OCC3CCCCC3)c3nc[nH]c3n2)cc1`, the residual activity came to 88.6%.

Another experiment addresses ZAP70 (human) (UniProt P43403). Described as above. The conditions noted are these: compound 0.5 µM; ATP 10 µM.
In the case of `Cc1ccc(S(=O)(=O)/C=C/C#N)cc1`, the residual activity was 97.5%.
Regarding `O=C1NC(=O)c2c1c1c3ccccc3n3c1c1c2c2ccccc2n1C1CCC3O1`, the residual activity was determined as 88.4%.
On the same count and under the same terms, for `CCN(CC)C(=O)c1ccc(Nc2nc(OCC3CCCCC3)c3nc[nH]c3n2)cc1` the value was 94%.
